Experimental data published in paper PMC11374660, “The novel family of Warbicin® compounds inhibits glucose uptake both in yeast and human cells and restrains cancer cell proliferation” (Frontiers in Oncology, 2024).

How the values were obtained:
[1] = test system: untransformed MCF10A cell line; test: Growth and apoptosis of untransformed MCF10A cells (IncuCyte); format: cell-based, human; details: 1 mM glucose, 25 µM
[2] = test system: A549 lung adenocarcinoma cells; test: Proliferation of A549 lung adenocarcinoma cells; format: cell-based, human; details: for relative potency in reducing maximal growth rate of A549 cells: 1 mM glucose, 6.25-50 µM
Procedure: (§1) For both adherent A549 and MCF10A H-RAS^V12 cell lines, growth curves were established using the IncuCyte® ZOOM technology. By collecting phase contrast images, the IncuCyte® software provides a calculated confluency percentage from which growth curves can be deducted. The cell number/density was measured by calculating the confluency of phase objects (cells) sticking on the bottom of the well. Cells were seeded at a density of 1000 - 1500 cells/well in a Nunc-Edge™ 96-well plate (Thermo Fisher Scientific) and growth was typically measured over 3 to 5 days. For the measurement of apoptosis induction using the MCF10A H-RAS^V12 cell line, the IncuCyte® Caspase-3/7 green dye was added to the medium in the recommended concentration at the beginning of the growth curve experiment. Apoptosis was detected by taking fluorescent images by excitation at 488 nm followed by IncuCyte® software analysis. Cell growth of the KMS-12-PE multiple myeloma cell line, which grows in suspension, was measured by manual cell counting. Cells were initially seeded at a density of 10^4 cells/well and incubated for 4 days after which the cell number was counted. For all cell lines, the same medium used for pregrowth was also used for the growth curve experiment, albeit with different glucose concentrations depending on the experimental design. With compound administration, the final concentration of DMSO never exceeded 0.1%. Typically, at least four technical repeats were included per condition.

[3] = test system: MCF10A breast epithelial cell line transformed with H-RAS^V12; test: Growth and apoptosis of MCF10A H-RAS^V12 cells (IncuCyte); format: cell-based, human; details: MCF10A H-RAS^V12, 1 mM glucose, 25 µM
Procedure: as §1

[4] = test system: hxk2Δ hxk1Δ GLK1 yeast cells; test: Sugar uptake in hxk2Δ hxk1Δ GLK1 yeast cells; format: cell-based, S. cerevisiae
Procedure: (§2) Zero-trans uptake of radioactively labeled [U-^14C]glucose, [U-^14C]fructose or [U-^14C]galactose by S. cerevisiae cells was determined in accordance with previous studies ([45], [75]). Cells were grown on different carbon sources depending on the experiment. For measuring glucose uptake activity in the tps1Δ and tps1Δ hxtΔ strains, cells were grown on YP medium containing 325 mM glycerol (measurement of 10 s). Typically, for compound characterization and kinetic studies in wild type and tps1Δ strains, cells were (pre)grown on Complete Synthetic medium supplemented with 110 mM galactose (measurement of 10 s). In the experiments on the influence of hexokinase activity on the sugar uptake rate, the measurement duration was shortened to 5 s and cells were always grown on YP medium containing 325 mM glycerol and 430 mM ethanol. After harvesting, cells were washed twice with ice-cold 25 mM MES-buffer pH 6, and resuspended in their respective medium without sugar to a final concentration of 45 mg (wet weight)/mL. The amount of added tracer was estimated to give a response close to at least 1000 counts per min in order to adequately counter background noise. Cells were first preincubated for 10 min at 30°C with the compound to acclimate the cells to the temperature and to allow adequate interaction with the compound prior to uptake. Next, hexose sugar was mixed with the cell suspension, which was then incubated at 30°C for 5 or 10 s, depending on the experiment, after which the cells were rapidly filtered over a glass microfiber filter (Whatman GF/C) and washed three times with ice-cold dH2O. The loaded filter was transferred to a scintillation vial containing 3 mL liquid scintillation cocktail (Ultima-Flo M, Perkin Elmer) and counted using the Hidex 300 SL. Three blank measurements per strain were typically included to account for background signal, for which the cells were first quenched before adding the radioactive label.

[5] = test system: hxk2Δ hxk1Δ glk1Δ yeast cells; test: Glucose uptake in hxk2Δ hxk1Δ glk1Δ yeast cells; format: cell-based, S. cerevisiae; details: strain lacking glucose phosphorylation
Procedure: as §2, with “Cells were first preincubated for 10 min at 30°C with the compound to acclimate the cells to the temperature and to allow adequate interaction with the compound prior to uptake. Next, hexose sugar was mixed with the cell suspension, which was then incubated at 30°C for 5 or 10 s, depending on the experiment, after which the cells were rapidly filtered over a glass microfiber filter (Whatman GF/C) and washed three times with ice-cold dH2O.” left out, “Three blank measurements per strain were typically included to account for background signal, for which the cells were first quenched before adding the radioactive label.” left out

wild type yeast cells = test: Growth of wild type yeast (general toxicity); format: cell-based, S. cerevisiae; details: 100 µM; 110 mM glucose medium and 325 mM glycerol + 430 mM ethanol medium
Procedure: Growth curves were made by measuring OD595 in a 96-well plate using the Multiskan™ FC Microplate Photometer (Thermo Fisher Scientific). Typically, for tps1Δ rescue experiments, cells were (pre)grown in Complete Synthetic medium containing 110 mM galactose. Compounds were always added 10 min prior to glucose addition to ensure maximal interaction between the cells and compounds. Cells originating from the preculture were harvested, washed in medium without sugar, after which they were resuspended to an OD of 0.1 in 200 µL of the appropriate medium. At least three technical replicates were included per condition. OD595 was measured at 30°C every 30 min with a 10-min shaking interval.

[6] = 250 µM CCCP or 50 µM WBC-A 10 min prior, 100 mM maltose with the tracer

Row | SMILES | induction of apoptosis [1] | Selected from primary screen for growth inhibition of A549 cells at 50 µM ([2]; RPMI 1 mM glucose) | relative potency in reducing maximal growth rate of A549 cells [2] | Selected for having an IC50 ratio (10 mM glucose : 1 mM glucose) of A549 growth higher than WBC-A ([2]; ratio of IC50 on 10 mM and 1 mM glucose, compared to WBC-A) | induction of apoptosis (caspase 3/7 dye) [3] | inhibition of proliferation [3] | fructose uptake at tracer concentration [4, 6] | glucose uptake at tracer concentration [4, 6] | inhibition at 50 µM ([4]; Saccharomyces cerevisiae, read-out: inhibition of fructose transport) | inhibition of A549 growth ([2]; RPMI 1 mM glucose, 12.5 µM) | inhibition of A549 growth ([2]; RPMI 1 mM glucose, concentrations higher than 12.5 µM (25, 50 µM)) | inhibition of A549 growth ([2]; RPMI 1 mM or 5 mM glucose, 12.5-50 µM, more pronounced for 1 mM) | 1 mM glucose uptake rate [5] | growth inhibition of wild type yeast (wild type yeast cells)
1 | Cc1nc(SCC(=O)c2ccc3c(c2)NC(=O)CO3)c2c(-c3cccs3)csc2n1 [WBC-11C] | induces apoptosis | Yes | most | Higher IC50 ratio and confirmed | strong induction of apoptosis | highest potency | – | – | – | – | – | – | – | –
2 | Cc1nc(Sc2nnc3n2CCCCC3)c2c(-c3cccs3)csc2n1 [WBC-A] | – | Yes | intermediate potency | – | – | – | little inhibition of fructose uptake | strong inhibition of glucose uptake | ~30% | pronounced inhibition | completely blocked continued cancer cell proliferation | dose-dependent inhibition of growth | little further inhibition | did not cause any growth inhibition at all
